# According to ChEMBL document CHEMBL5223156, “Synthesis and biological evaluation of novel N-benzyltriazolyl-hydroxamate derivatives as selective histone deacetylase 6 inhibitors” (Bioorg Med Chem, 2023):
# Activity calls are given as the source filed them. No cut-off for these calls is given here.
# Columns and labels:
# [1] = target: T1, Protein deacetylase HDAC6 (Homo sapiens, UniProt Q9UBN7); assay: Inhibition of human recombinant HDAC6 using fluorogenic substrate measured after 30 mins
# T1 sequence (Q9UBN7 whole entry): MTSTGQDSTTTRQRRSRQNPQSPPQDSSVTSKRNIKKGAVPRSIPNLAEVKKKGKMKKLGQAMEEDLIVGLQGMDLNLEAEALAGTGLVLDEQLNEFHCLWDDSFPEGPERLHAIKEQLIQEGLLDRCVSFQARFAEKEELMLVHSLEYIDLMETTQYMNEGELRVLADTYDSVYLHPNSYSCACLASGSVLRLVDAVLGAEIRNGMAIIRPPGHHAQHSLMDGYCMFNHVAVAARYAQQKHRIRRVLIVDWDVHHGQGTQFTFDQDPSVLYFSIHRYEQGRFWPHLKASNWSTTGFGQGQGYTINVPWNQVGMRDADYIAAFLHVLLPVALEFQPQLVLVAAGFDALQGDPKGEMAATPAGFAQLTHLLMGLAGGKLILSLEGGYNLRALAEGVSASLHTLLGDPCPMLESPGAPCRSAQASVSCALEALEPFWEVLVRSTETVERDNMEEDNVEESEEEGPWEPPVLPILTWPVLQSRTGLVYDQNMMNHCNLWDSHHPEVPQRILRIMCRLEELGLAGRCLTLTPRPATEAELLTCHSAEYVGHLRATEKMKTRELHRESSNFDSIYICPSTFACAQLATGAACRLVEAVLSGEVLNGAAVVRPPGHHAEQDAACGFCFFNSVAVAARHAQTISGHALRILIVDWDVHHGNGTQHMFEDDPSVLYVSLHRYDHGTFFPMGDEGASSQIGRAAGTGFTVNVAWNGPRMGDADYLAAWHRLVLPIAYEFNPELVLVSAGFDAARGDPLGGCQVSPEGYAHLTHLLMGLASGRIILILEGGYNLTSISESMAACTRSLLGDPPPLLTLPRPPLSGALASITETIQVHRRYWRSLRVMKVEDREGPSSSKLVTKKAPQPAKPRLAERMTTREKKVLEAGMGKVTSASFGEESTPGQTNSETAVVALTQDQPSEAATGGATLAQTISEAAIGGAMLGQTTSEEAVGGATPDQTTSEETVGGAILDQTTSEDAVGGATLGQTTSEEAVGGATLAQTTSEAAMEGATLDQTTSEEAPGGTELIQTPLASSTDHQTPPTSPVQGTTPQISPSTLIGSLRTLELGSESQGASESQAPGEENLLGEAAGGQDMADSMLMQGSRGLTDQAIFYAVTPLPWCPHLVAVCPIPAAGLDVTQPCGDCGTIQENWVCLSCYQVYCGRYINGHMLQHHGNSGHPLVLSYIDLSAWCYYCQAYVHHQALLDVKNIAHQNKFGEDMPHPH
# [2] = target: Histone deacetylase 1 (Homo sapiens, UniProt Q13547); assay: Inhibition of human recombinant HDAC1 using fluorogenic substrate measured after 30 mins
# Histone deacetylase 1, sequence (Q13547 whole entry): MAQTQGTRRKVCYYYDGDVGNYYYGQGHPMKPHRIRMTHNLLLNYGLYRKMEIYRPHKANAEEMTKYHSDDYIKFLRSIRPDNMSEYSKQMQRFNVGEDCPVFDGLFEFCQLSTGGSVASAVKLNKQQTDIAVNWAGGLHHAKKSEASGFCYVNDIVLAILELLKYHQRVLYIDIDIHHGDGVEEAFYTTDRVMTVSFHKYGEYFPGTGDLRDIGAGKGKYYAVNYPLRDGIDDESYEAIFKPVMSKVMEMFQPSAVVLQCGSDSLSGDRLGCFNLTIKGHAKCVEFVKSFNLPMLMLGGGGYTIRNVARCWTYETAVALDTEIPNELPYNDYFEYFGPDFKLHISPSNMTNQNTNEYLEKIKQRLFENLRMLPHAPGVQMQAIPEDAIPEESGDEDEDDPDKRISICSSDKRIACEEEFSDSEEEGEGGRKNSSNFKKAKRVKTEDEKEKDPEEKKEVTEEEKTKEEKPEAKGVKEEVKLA
# [3] = target: Histone deacetylase 2 (Homo sapiens, UniProt Q92769); assay: Inhibition of human recombinant HDAC2 using fluorogenic substrate measured after 30 mins
# Histone deacetylase 2, sequence (Q92769 whole entry): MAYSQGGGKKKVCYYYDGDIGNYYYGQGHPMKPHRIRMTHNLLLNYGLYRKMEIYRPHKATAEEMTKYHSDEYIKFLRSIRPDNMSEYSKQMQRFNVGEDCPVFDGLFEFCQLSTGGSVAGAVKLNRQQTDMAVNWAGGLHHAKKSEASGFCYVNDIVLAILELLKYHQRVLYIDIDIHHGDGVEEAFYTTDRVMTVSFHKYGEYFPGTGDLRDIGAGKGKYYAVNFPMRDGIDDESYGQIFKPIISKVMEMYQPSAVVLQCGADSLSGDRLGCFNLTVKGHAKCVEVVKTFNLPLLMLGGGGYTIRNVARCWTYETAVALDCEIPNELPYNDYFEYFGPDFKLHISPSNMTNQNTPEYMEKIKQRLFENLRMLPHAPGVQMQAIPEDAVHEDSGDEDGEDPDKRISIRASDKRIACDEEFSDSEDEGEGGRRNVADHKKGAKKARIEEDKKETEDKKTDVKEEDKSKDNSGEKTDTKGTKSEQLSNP
# [4] = target: Histone deacetylase 4 (Homo sapiens, UniProt P56524); assay: Inhibition of human recombinant HDAC4 using fluorogenic substrate measured after 30 mins
# Histone deacetylase 4, sequence (P56524 whole entry): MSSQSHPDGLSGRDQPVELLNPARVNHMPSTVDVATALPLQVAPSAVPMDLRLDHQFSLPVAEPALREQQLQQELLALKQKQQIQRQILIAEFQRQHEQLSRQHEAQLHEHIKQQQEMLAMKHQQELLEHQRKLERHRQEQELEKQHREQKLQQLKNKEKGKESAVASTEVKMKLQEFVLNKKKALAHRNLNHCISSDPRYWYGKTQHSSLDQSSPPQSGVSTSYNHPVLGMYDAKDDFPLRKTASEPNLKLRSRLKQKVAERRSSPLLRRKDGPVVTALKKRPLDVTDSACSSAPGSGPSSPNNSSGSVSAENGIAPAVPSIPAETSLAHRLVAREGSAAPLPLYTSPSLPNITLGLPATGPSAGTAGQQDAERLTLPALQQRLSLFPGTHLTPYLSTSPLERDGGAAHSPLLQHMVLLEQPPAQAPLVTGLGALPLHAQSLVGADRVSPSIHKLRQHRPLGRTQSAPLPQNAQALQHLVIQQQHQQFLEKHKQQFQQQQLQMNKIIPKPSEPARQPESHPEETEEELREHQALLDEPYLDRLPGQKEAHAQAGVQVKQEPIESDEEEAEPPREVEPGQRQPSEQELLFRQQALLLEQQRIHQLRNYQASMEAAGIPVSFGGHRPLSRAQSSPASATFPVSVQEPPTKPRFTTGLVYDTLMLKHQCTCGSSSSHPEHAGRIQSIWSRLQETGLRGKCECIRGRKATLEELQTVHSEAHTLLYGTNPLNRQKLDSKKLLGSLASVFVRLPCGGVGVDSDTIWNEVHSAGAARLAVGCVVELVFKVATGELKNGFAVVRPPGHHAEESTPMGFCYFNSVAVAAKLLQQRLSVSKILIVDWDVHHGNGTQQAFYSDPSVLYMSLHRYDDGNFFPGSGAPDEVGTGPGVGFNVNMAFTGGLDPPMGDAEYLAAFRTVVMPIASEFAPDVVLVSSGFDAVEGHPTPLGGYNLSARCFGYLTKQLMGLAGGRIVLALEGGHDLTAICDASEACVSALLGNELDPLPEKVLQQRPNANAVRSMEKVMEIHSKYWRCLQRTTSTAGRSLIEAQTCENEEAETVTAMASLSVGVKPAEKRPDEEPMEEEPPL
# [5] = target: T2, Histone deacetylase 8 (Homo sapiens, UniProt Q9BY41); assay: Inhibition of human recombinant HDAC8 using fluorogenic substrate measured after 30 mins
# T2 sequence (Q9BY41 whole entry): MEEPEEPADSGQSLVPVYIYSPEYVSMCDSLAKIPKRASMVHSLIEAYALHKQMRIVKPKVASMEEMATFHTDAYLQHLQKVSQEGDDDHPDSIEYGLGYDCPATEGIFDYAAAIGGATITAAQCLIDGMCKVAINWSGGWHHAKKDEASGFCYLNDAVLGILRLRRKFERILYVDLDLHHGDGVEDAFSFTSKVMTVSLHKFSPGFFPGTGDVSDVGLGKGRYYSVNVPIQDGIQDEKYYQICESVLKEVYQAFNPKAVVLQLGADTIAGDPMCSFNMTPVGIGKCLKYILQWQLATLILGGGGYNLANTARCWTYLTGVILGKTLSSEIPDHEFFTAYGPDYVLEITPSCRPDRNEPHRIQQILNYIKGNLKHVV
# [6] = target: T3, Histone deacetylase 11 (Homo sapiens, UniProt Q96DB2); assay: Inhibition of human recombinant HDAC11 using fluorogenic substrate measured after 30 mins
# T3 sequence (Q96DB2 whole entry): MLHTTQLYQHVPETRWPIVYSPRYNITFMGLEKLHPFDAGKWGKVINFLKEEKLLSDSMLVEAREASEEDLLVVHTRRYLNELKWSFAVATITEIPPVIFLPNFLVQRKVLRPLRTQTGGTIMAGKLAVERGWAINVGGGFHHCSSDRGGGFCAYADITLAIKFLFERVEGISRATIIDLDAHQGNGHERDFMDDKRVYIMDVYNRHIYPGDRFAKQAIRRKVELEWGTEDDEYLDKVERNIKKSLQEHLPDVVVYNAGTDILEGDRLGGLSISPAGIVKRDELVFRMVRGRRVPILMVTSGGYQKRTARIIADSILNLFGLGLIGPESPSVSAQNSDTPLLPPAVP
# [7] = Cytotoxicity against human SH-SY5Y cells assessed as cell viability measured after 36 hrs by CCK8 assay
# [8] = target: T4, Protein deacetylase HDAC6 (Homo sapiens) (UniProt Q9UBN7); assay: Inhibition of HDAC6 in human HeLa cells assessed as acetylated histone H3 level at 0.3 to 3 uM measured after 24 hrs by immunoblotting analysis; assay type: cell-based; settings: dose 0.3-3 µM
# T4 sequence (whole entry): T1 sequence (Q9UBN7 whole entry)
# [9] = target: T4, Protein deacetylase HDAC6 (Homo sapiens); assay: Inhibition of HDAC6 in human SH-SY5Y cells assessed as acetylated histone H3 level at 0.3 to 3 uM measured after 24 hrs by immunoblotting analysis; assay type: cell-based; settings: dose 0.3-3 µM
IC50 [1] [nM],IC50 [2] [nM],Structure (SMILES),further results
12.3,197,O=C(NO)c1ccc(Cn2cnc(-c3cccc(O)c3)n2)cc1,–
27.9,356,O=C(NO)c1ccc(Cn2cnc(-c3cccnc3)n2)cc1,–
6.4,111,O=C(NO)c1ccc(Cn2cnc(-c3cccc(Cl)c3)n2)cc1,–
9.11,206,O=C(NO)c1ccc(Cn2cnc(-c3ccccc3)n2)cc1,–
10.4,249,O=C(NO)c1ccc(Cn2cnc(-c3cccs3)n2)cc1,–
11400,23200,O=C(NO)c1cccc(Cn2cncn2)c1,–
12.6,269,O=C(NO)c1ccc(Cn2cnc(-c3ccc(F)cc3)n2)cc1,–
14.7,168,Cc1cccc(-c2ncn(Cc3ccc(C(=O)NO)cc3)n2)c1,–
91.8,1440,O=C(NO)c1ccc(Cn2cncn2)cc1,–
44.1,926,O=C(NO)c1ccc(Cn2cnc(Br)n2)cc1,–
18.3,427,O=C(NO)c1ccc(Cn2ncnc2-c2cccs2)cc1,–
10,256,O=C(NO)c1ccc(Cn2cnc(-c3ccccc3F)n2)cc1,–

# More lines, now with the values behind:
Structure (SMILES),IC50 [1] [nM],IC50 [2] [nM],further results
O=C(NO)c1ccc(Cn2cnc(-c3cc(F)cc(F)c3)n2)cc1,19.6,256,–
O=C(NO)c1ccc(Cn2cnc(-c3cccc(C(F)(F)F)c3)n2)cc1,4.57,122,–
O=C(NO)c1ccc(Cn2cnc(-c3cccc(F)c3)n2)cc1,8.73,268,–
O=C(NO)c1cccc(Cn2ncnc2-c2ccccc2)c1,152,18300,–
O=C(NO)c1ccc(Cn2ncnc2-c2ccccc2F)cc1,11.8,605,–
O=C(NO)c1ccc(Cn2cnc(-c3ccccc3)n2)nc1,20.6,431,–
COc1cccc(-c2ncn(Cc3ccc(C(=O)NO)cc3)n2)c1,11.5,167,–
O=C(NO)c1ccc(Cn2cnc(-c3cccc(OC(F)(F)F)c3)n2)cc1,13.3,212,–
O=C(NO)c1ccc(Cn2cnc(-c3ccccc3F)n2)c(F)c1,7.09,299,IC50 [3]: 509 nM; IC50 [4]: 4040 nM; IC50 [5]: 813 nM; IC50 [6]: 8090 nM; IC50 at 36 h [7]: 8210 nM; inhibition [8]: Active; inhibition [9]: Active
O=C(NO)c1cccc(Cn2cnc(-c3ccccc3)n2)c1,1300,38800,–
O=C(NO)c1ccc(Cn2cnc(-c3cccc(-c4ccccc4)c3)n2)cc1,11.1,150,–
O=C(NO)c1ccc(Cn2ncnc2-c2ccccc2)cc1,16.9,341,–
O=C(NO)c1ccc(Cn2cnc(-c3c(F)cccc3F)n2)cc1,14.3,369,–
O=C(NO)c1ccc(Cn2cnc(-c3ccccc3)n2)c(F)c1,12.4,455,–
